Here are results for one molecule from patent publication US9023853B2, “Janus kinase 2 (JAK2) inhibitor for the treatment of lupus” (Cephalon, Inc., priority 2010, dated 2015).

For data set [1] the following is noted: mouse, in vivo. From the text:
MRL/lpr mice were first randomized, initial bleeds collected, and body weights recorded for baseline measurements (FIG. 1). All mice were individually ear tagged and were monitored throughout the entire experiment (e.g., “Group#-Cage letter-Mouse#”, so “3B5”=Group 3 (G3), cage B, mouse#5). Mice were age-matched and treatment started at 6-8 weeks of age. Cheek bleeds and urine collection continued weekly throughout the experiment. Mice were individually tracked for several parameters including cytokine and ANA levels, proteinuria, body mass, lymphomegaly, general health, and mortality. All parameters were evaluated bi-monthly except mortality which was monitored daily. All groups consisted of a minimum of at least 10-12 mice per group. Ex vivo experiments included flow cytometry analyses for plasma cells, serum complement C3 and ANA levels; urine protein and leukocytes, serum cytokine profiling, renal histo pathology, and determination of compound levels (pharmacokinetics (PK)) in the spleen, kidney and plasma. Mice were tracked on an individual basis. For all data, mice were grouped into populations and data graphed as mean±SEM. Bi-monthly observations and data collected were recorded for each group, except mortality which was performed daily. End-stage readouts were analyzed as described in the MATERIALS AND METHODS section (above) and in FIG. 1. […]

For data set [2], the system named is IL-4. Briefly: Serum IL-4 in NZM mice. It is filed as in vivo, mouse. The method, then:
(§1) For the processing of serum samples for cytokine analysis, frozen plasma at −80° C. was thawed on ice, vortexed, and centrifuged for 10 minutes to remove debris and aggregates. A total of 25-50 μL of serum was used for Luminex® assays following the manufacturer's instructions. Ten different mouse cytokines were measured using the mouse cytokine 10-plex bead kit (Invitrogen, Carlsbad, Calif., no. LMC0001). Briefly, filter plates (Millipore, Billerica, Mass., no. MAIPSWU10), were pre-wet with 200 μL of wash solution (kit component) and 25 μL of beads were added per well. […]
(§2) Age mated, female, NZM or NZW/LacJ, mice were matured for the study of lupus nephritis for a total of 7 months or 210 days at which time urine was collected for proteinuria detection. Mice with 0.5-1.0 mg/ml of urine protein as determined by an optical density-based total protein precipitation assay and cross-checked for 30-300 mg/dl of protein as determined by a stick assay were considered proteinuria positive and selected for study entry. […] End-stage lupus nephritis was evaluated by histopathology and scored by a board certified pathologist for the assessment of total renal damage in diseased animals using the scoring method described by Smith et al (Smith, Dong et al. 2007). […]

The subject of data set [3] is CCL3/MIP-1α. Kind of data set: Serum CCL3/MIP-1α in NZM mice. It is filed as in vivo, mouse. The method, then: as §1, §2
Data set [4] has as its system plasma cells. Briefly: Spleen plasma cells by flow cytometry in MRL/lpr mice. Type of data set: in vivo, mouse. The following applies: 100 mg/kg, p<0.01. Here is the method: Antibodies used for flow cytometry consisted of anti-mouse CD138-APC (eBioscience, San Diego, Calif.), anti-mouse CD19-FITC (eBioscience, San Diego, Calif.), anti-mouse CD38-PE (eBioscience, San Diego, Calif.) and anti-mouse CD45R/B220-Cyc (eBioscience, San Diego, Calif.), Rat IgG1-APC isotype control (eBioscience, San Diego, Calif.), Rat IgG2a-PE isotype control (eBioscience, San Diego, Calif.). All samples were analyzed using an Accuri C6 Flow Cytometer. Complete media was used for all experiments involving the ex vivo culture of splenocytes for all Elispot experiments. Complete media consisted of RPMI1640 (Cellgro, Manassas, Va.), plus 1% Pen-Strep (Cellgro, Manassas, Va.), 1% L-Gln (Cellgro, Manassas, Va.), 1% NEAA (Cellgro, Manassas, Va.), β-ME (Cellgro, Manassas, Va.), plus 10% FBS (Cellgro, Manassas, Va.).
Washed, RBC-lysed splenocytes were stained for plasma cell markers as previously used in published reports (Neubert, Meister et al. 2008). As used herein the term “plasma cell” will refer to the following immunophenotype definition: Plasma cells were defined as live CD19-negative, CD45R/B220-negative, CD138-positive, CD38-positive events for the MRL/lpr model. A total of 200,000-500,000 events were collected per tube/sample. Insufficient sample limited plasma cell determination in bone marrow. […]

For data set [5], the system named is IL-6. Briefly: Serum IL-6 in NZM mice. Type of data set: in vivo, mouse. The method, then:
as §1, §2

As to `CN1CCN(c2cccc(Nc3nc4c(-c5ccc(S(C)(=O)=O)cc5)cccn4n3)c2)CC1` [COMPOUND A, [8-(4-methanesulfonyl-phenyl)-[1,2,4]triazolo[1,5-a]pyridin-2-yl]-[3-(4-methyl-piperazin-1-yl)-phenyl]-amine], in data set [1], the overt toxicity entry was “overt toxicity was not observed”. For the same molecule, the figures for the “serum IL-4 decrease compared to vehicle” value in data set [2] (55 mg/kg) and in data set [2] (100 mg/kg) were 98.7% and 91.8%, respectively. The “serum CCL3/MIP-1α decrease compared to vehicle” value in data set [3] (55 mg/kg) and in data set [3] (100 mg/kg) was 94.5% in each case. Further, in data set [4], the “spleen plasma cells decrease vs vehicle” value is on record as 65.5%. The “serum IL-6 decrease compared to vehicle” value in data set [5] (55 mg/kg) came out at 98.2%; in data set [5] (100 mg/kg) it was 97.0%.
